According to patent US9839642B2, “Beta-tetrazolyl-propionic acids as metallo-beta-lactamase inhibitors” (priority 2014, dated 2017):
Like-named read-outs stand apart in the source and are kept apart here.

Experiments:
[1] = test system: Serratia marcescens expressing IMP-1 (CL5741); experiment: Antibiotic potentiation activity: synergistic concentration (MITC95) with imipenem, growth by OD600; type: cell-based; conditions: S. marcescens CL5741 (IMP-1), 95% inhibition of growth
Procedure, shortened: (§1)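 Strains grown overnight at 35° C, resuspended in saline, diluted 1:100 into 1.1×CAMHB; imipenem at 1 μg/ml or 4 μg/ml with test compound 200 μM to 0.195 μM. Incubated 22 hours to 24 hours at 35° C, OD600 read; MITC95 is lowest compound concentration inhibiting 95% of growth.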

[2] = test system: Klebsiella pneumoniae expressing VIM-1 (IHMA599644); experiment: as above; type: cell-based; conditions: K. pneumoniae IHMA599644 (VIM-1), 95% inhibition of growth
Procedure, shortened: as §1

[3] = test system: Escherichia coli expressing NDM-1 (CLB30016); experiment: as above; type: cell-based; conditions: E. coli CLB30016 (NDM-1), 95% inhibition of growth
Procedure, shortened: as §1

IMP-1 = IMP-1 (Serratia marcescens, UniProt P52699); experiment: Enzyme activity: determination of IC50, fluorescence assay with CCF2-FA substrate; type: biochemical; conditions: IMP-1 enzyme 2 pM, CCF2-FA 1.25 μM, 2 hours at 25° C.; read-out: IMP1 IC50
Sequence of IMP-1 (P52699 19-246, looked up, species assumed): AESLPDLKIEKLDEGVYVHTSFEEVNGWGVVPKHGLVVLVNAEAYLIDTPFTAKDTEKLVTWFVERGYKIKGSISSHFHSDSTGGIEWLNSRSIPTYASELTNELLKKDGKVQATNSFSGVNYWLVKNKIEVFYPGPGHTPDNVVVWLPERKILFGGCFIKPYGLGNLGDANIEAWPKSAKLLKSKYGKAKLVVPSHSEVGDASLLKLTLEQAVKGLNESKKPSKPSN
Procedure, shortened: (§2)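 Read-out: fluorescence, ex 405 nm / em 460 nm, after 2 h at 25° C with 1.25 μM CCF2-FA. Buffer 100 mM KH2PO4 pH 7, 0.005% Tween-20, 10 μM ZnSO4; enzyme 1 pM NDM-1, 2 pM IMP-1, 30 pM VIM-1. IC50 by 4-parameter fit.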

NDM-1 = NDM-1 (Klebsiella pneumoniae, UniProt C7C422); experiment: as above; type: biochemical; conditions: CCF2-FA 1.25 μM, 2 hours at 25° C.
Sequence of NDM-1 (C7C422 29-270, looked up, species assumed): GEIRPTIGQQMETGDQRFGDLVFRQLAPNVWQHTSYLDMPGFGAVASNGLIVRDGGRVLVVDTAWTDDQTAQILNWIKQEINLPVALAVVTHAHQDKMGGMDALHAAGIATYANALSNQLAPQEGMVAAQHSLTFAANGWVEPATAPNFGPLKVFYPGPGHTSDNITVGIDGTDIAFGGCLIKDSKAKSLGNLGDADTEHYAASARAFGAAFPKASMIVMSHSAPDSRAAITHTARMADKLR
Procedure, shortened: as §2

VIM-1 = VIM-1 (Pseudomonas aeruginosa, UniProt A0A0F7KYQ8); experiment: as above; type: biochemical; conditions: VIM-1 enzyme 30 pM, CCF2-FA 1.25 μM, 2 hours at 25° C.; read-out: VIM1 IC50
Procedure, shortened: as §2

[4] = NDM-1 enzyme 1 pM, read-out: NDM1 IC50

Structure (SMILES)	IMP1 SM5741 MITC95 [1]	VIM1 KP599644 MITC95 [2]	NDM1 EC30016 MITC95 [3]	IC50 (IMP-1)	IC50 (NDM-1; [4])	IC50 (VIM-1)	IC50 (NDM-1; NDM1 IC50, NDM-1 enzyme 1 pM)
CCC[C@H](C(=O)O)[C@H](Cc1cc(C(F)(F)F)cc(C(F)(F)F)c1)c1nnn[nH]1 [Example 269, (2S)-2-[(1S)-2-[3,5-bis(trifluoromethyl)phenyl]-1-(1H-tetrazol-5-yl)ethyl]pentanoic acid]	38 µM	38 µM	18.8 µM	1500 nM	36 nM	0.76 nM	
CCC[C@H](C(=O)O)[C@H](Cc1ccc2nsnc2c1)c1nnn[nH]1 [Example 271, (2S)-2-[(1S)-2-(2,1,3-benzothiadiazol-5-yl)-1-(1H-tetrazol-5-yl)ethyl]pentanoic acid]	50 µM	12.5 µM	6.2 µM	650 nM	84 nM	1.1 nM	
CCC[C@H](C(=O)O)[C@H](Cc1cccc2nsnc12)c1nnn[nH]1 [Example 272, (2S)-2-[(1S)-2-(2,1,3-benzothiadiazol-4-yl)-1-(1H-tetrazol-5-yl)ethyl]pentanoic acid]	38 µM	9.4 µM	4.7 µM	600 nM	12 nM	0.35 nM	
CCC[C@H](C(=O)O)[C@H](Cc1ccc2nonc2c1)c1nnn[nH]1 [Example 273, (2S)-2-[(1S)-2-(2,1,3-benzoxadiazol-5-yl)-1-(1H-tetrazol-5-yl)ethyl]pentanoic acid]	150 µM	9.4 µM	12.5 µM	2200 nM	260 nM	1.9 nM	
CCC[C@H](C(=O)O)[C@H](Cc1ccc(C(=O)N2CCNCC2)cc1)c1nnn[nH]1 [Example 275, (2S)-2-[(1S)-2-[4-(piperazin-1-ylcarbonyl)phenyl]-1-(1H-tetrazol-5-yl)ethyl]pentanoic acid]	25 µM	38 µM	9.4 µM	520 nM	39 nM	41 nM	
CCC[C@H](C(=O)O)[C@H](Cc1ccc(C(=O)NCCN)cc1)c1nnn[nH]1 [Example 276, (2S)-2-[(1S)-2-{4-[(2-aminoethyl)carbamoyl]phenyl}-1-(1H-tetrazol-5-yl)ethyl]pentanoic acid]	100 µM	25 µM	12.5 µM	5400 nM	1100 nM	8.4 nM	
CCC[C@H](C(=O)O)[C@H](Cc1ccc(C(=O)N(C)C)cc1)c1nnn[nH]1 [Example 277, (2S)-2-[(1S)-2-[4-(dimethylcarbamoyl)phenyl]-1-(1H-tetrazol-5-yl)ethyl]pentanoic acid]	12.5 µM	75 µM	25 µM	130 nM	10 nM	13 nM	
CCC[C@H](C(=O)O)[C@H](Cc1ccc(C(=O)N2CCC(N)CC2)cc1)c1nnn[nH]1 [Example 278, (2S)-2-[(1S)-2-{4-[(4-aminopiperidin-1-yl)carbonyl]phenyl}-1-(1H-tetrazol-5-yl)ethyl]pentanoic acid]	6.2 µM	50 µM	12.5 µM	200 nM	10 nM	120 nM	
CCC[C@H](C(=O)O)[C@H](Cc1ccc(C(=O)NC)cc1)c1nnn[nH]1 [Example 279, (2S)-2-[(1S)-2-[4-(methylcarbamoyl)phenyl]-1-(1H-tetrazol-5-yl)ethyl]pentanoic acid]	>200 µM	>200 µM	150 µM	9500 nM	1000 nM	100 nM	
CCC[C@H](C(=O)O)[C@H](Cc1ccc(C(=O)NCCO)cc1)c1nnn[nH]1 [Example 280, (2S)-2-[(1S)-2-{4-[(2-hydroxyethyl)carbamoyl]phenyl}-1-(1H-tetrazol-5-yl)ethyl]pentanoic acid]	25 µM	25 µM	18.8 µM	880 nM	140 nM	2.7 nM	
CCC[C@H](C(=O)O)[C@H](Cc1ccc(C(=O)NC2CC2)cc1)c1nnn[nH]1 [Example 281, (2S)-2-[(1S)-2-[4-(cyclopropylcarbamoyl)phenyl]-1-(1H-tetrazol-5-yl)ethyl]pentanoic acid]	200 µM	200 µM	100 µM	5300 nM	770 nM	86 nM	
CCC[C@H](C(=O)O)[C@H](Cc1ccc(C(=O)NCC2CC2)cc1)c1nnn[nH]1 [Example 282, (2S)-2-[(1S)-2-{4-[(cyclopropylmethyl)carbamoyl]phenyl}-1-(1H-tetrazol-5-yl)ethyl]pentanoic acid]	50 µM	50 µM	18.8 µM	730 nM	98 nM	19 nM	
CCC[C@H](C(=O)O)[C@H](Cc1ccc(C(=O)O)cc1)c1nn[nH]n1 [Example 283, 4-((2S,3S)-3-carboxy-2-(2H-tetrazol-5-yl)hexyl)benzoic acid]	38 µM	200 µM	100 µM	850 nM	50 nM	17 nM	
CCC[C@H](C(=O)O)[C@H](Cc1nnc(N)s1)c1nnn[nH]1 [Example 284, (S)-2-((S)-2-(5-amino-1,3,4-thiadiazol-2-yl)-1-(1H-tetrazol-5-yl)ethyl)pentanoic acid]	>200 µM	38 µM	25 µM	> 20000 nM	13000 nM	340 nM	
CCC[C@H](C(=O)O)[C@H](Cc1cnc(SC)nc1)c1nnn[nH]1 [Example 285, (S)-2-((S)-2-(2-(methylthio)pyrimidin-5-yl)-1-(1H-tetrazol-5-yl)ethyl)pentanoic acid]	>200 µM	25 µM	25 µM	14000 nM	190 nM	3.3 nM	
CCC[C@H](C(=O)O)[C@H](Cc1cnc(S(C)(=O)=O)nc1)c1nnn[nH]1 [Example 286, (S)-2-((S)-2-(2-(methylsulfonyl)pyrimidin-5-yl)-1-(1H-tetrazol-5-yl)ethyl)pentanoic acid]	>200 µM	18.8 µM	25 µM	> 20000 nM	4600 nM	37 nM	
CCC[C@H](C(=O)O)[C@H](Cc1cnc(N2CCOCC2)nc1)c1nnn[nH]1 [Example 287, (S)-2-((S)-2-(2-morpholinopyrimidin-5-yl)-1-(1H-tetrazol-5-yl)ethyl)pentanoic acid]	75 µM	50 µM	25 µM	9200 nM	100 nM	5 nM	
CCC[C@H](C(=O)O)[C@H](Cc1cnc(N2CCNCC2)nc1)c1nnn[nH]1 [Example 288, (S)-2-((S)-2-(2-(piperazin-1-yl)pyrimidin-5-yl)-1-(1H-tetrazol-5-yl)ethyl)pentanoic acid]	150 µM	12.5 µM	12.5 µM	> 20000 nM		4.1 nM	520 nM
CCC[C@H](C(=O)O)[C@H](Cc1cnc(OC2CCNCC2)nc1)c1nnn[nH]1 [Example 289, (S)-2-((S)-2-(2-(piperidin-4-yloxy)pyrimidin-5-yl)-1-(1H-tetrazol-5-yl)ethyl)pentanoic acid]	>200 µM	38 µM	25 µM	> 20000 nM	3100 nM	6.8 nM	
CCC[C@H](C(=O)O)[C@H](Cc1cnc(N(C)C)nc1)c1nnn[nH]1 [Example 290, (S)-2-((S)-2-(2-(dimethylamino)pyrimidin-5-yl)-1-(1H-tetrazol-5-yl)ethyl)pentanoic acid]	150 µM	38 µM	18.8 µM	14000 nM	110 nM	2.1 nM	
CCC[C@H](C(=O)[O-])[C@H](Cc1ccc(C2CC[N+](C)(C)CC2)nc1)c1nnn[nH]1 [Example 291, (S)-2-((S)-2-(6-(1,1-dimethylpiperidin-1-ium-4-yl)pyridin-3-yl)-1-(1H-tetrazol-5-yl)ethyl)pentanoate]	50 µM	38 µM	3.1 µM	6500 nM	650 nM	120 nM	
